pIC50: −log10 of the molar value.
System: 377384-186-R-J1-PDC complex spheroid viability
Assay: Anticancer human tumor 377384-186-R-J1-PDC patient-derived pancreatic carcinoma cell line growth inhibition [RAS]
Conditions: for pIC50: curve of first compound; for viability, T/C: stronger effect = lower value
Description: RAS pathway inhibitors in Combinations in Complex Spheroids
A high-throughput screen of multi-cell type tumor spheroids was designed to identify active combinations of RAS pathway inhibitors and targeted small molecules. Complex spheroids include a stromal component modeled by human endothelial cells (HUVEC) and fibroblasts modeled by human mesenchymal stem cells (MSCs). The concentration ranges selected for each drug and investigational agent were based upon clinically achievable concentrations if the clinical Cmax of the agent was known.
Compounds. The drugs and investigational agents: abemaciclib (NSC768073), cobimetinib (NSC768068), divarasib (GDC6063, NSC841802), docetaxel (NSC628503), GDC-1971 (RLY-1971, NSC841576), gemcitabine (NSC613327), inavolisib (NSC800729), ipatasertib (NSC767898), KB-0742 (NSC834161), MRTX-1133 (NSC836407), osimertinib (NSC779217), RMC-4630 (NSC839698), RMC-6236 (NSC851965), RMC-6291 (NSC852671), Ro-3306 (NSC812927), sapanisertib (NSC764658), SN-38 (NSC673596), staurosporine (NSC755774), SY5609 (NSC837396), and tovorafenib (DAY101, NSC766906), were obtained from the National Cancer Institute (NCI) Developmental Therapeutics Program Chemical Repository. The FDA-approved anticancer drug set is available from the NCI Developmental Therapeutics Program. […] The stock solutions were prepared in dimethyl sulfoxide (DMSO, Sigma-Aldrich, St. Louis, MO, cat. D2650) at 800-fold the tested concentration and stored at -70 degrees C prior to their use. All drugs and investigational agents were tested over a range starting from a high concentration at or near the clinical Cmax and decreasing in half-log increments. If the clinical Cmax for an agent had not been determined, the highest concentration tested was 10 microM.
Cell Culture. All cells were maintained in an incubator at 37 degrees C and 5% CO2 with 95% humidity. The PDC lines were cultured according to standard operating procedures established by the NCI PDMR. All PDCs were thawed and cultured in Matrigel-coated flasks prepared with a working solution of 1X Ham's F-12 nutrient mix, without supplementation (Invitrogen, Waltham, MA, cat. 11765054), 100 U/mL penicillin-streptomycin (Invitrogen, cat. 15140122), and 2.5% Matrigel (Corning Inc., Corning, NY, cat. 354248) for the first three passages. The 362531-283-R-J2-PDC and 782815-120-R-J1-PDC lines were cultured in 6C/Colon 1B media, which includes advanced DMEM/F-12 (Thermo Fisher Scientific, cat. 12634028), 10 mM HEPES (Thermo Fisher Scientific, cat. 15630080), 1X GlutaMAX supplement (Thermo Fisher Scientific, cat. 35050061), 0.1 mg/mL primocin (InvivoGen, San Diego, CA, cat. ant-pm-2), 10% defined fetal bovine serum, heat inactivated (HyClone Laboratories Inc., Logan, UT, cat. SH30070.03HI), 50% L-WRN conditioned media (ATCC, cat. CRL-3276), 1.25 mM N-Acetyl-L-cysteine (Sigma-Aldrich, cat. A9165), 10 mM nicotinamide (Sigma-Aldrich, cat. N0636), 1X B-27 supplement (Thermo Fisher Scientific, cat. 17504044), 1X N-2 supplement (Thermo Fisher Scientific, cat. 17502048), 50 ng/mL human EGF (Thermo Fisher Scientific, cat. PHG0311), and 10 microM Y-27632 dihydrochloride (Tocris Bioscience, cat. 1254). The K12877-001-R-J1-PDC line was cultured in 6I media, which includes all 6C/Colon 1B media plus 10 ng/mL human FGF-10 (PeproTech, cat. 100-26), 1 ng/mL human FGF-2 (PeproTech, cat. 100-18B), 1 µM prostaglandin E2 (Tocris Bioscience, cat. 2296), […] hydrocortisone (Sigma-Aldrich, cat. H4001), and […] bovine insulin (Sigma-Aldrich, cat. I6634). The K86415-001-R-J1-PDC line was cultured in 6D media, which includes all 6C/Colon 1B media components minus the L-WRN conditioned media. The 485176-168-R4-J1-PDC was cultured in PANC media, which includes all 6C/Colon 1B media plus 100 ng/mL human FGF-10 (PeproTech, cat. 100-26), 500 nM SB-431542 (Selleckchem, cat. S1067), and 10 nM gastrin (Tocris Bioscience, cat. 3006). […]
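Further: spheroids exposed to compounds for seven days before readout.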

In the case of `O=C(c1ccc(F)c(F)c1Nc1ccc(I)cc1F)N1CC(O)([C@@H]2CCCCN2)C1` + C#Cc1c(F)ccc2cc(O)cc(-c3ncc4c(N5CC6CCC(C5)N6)nc(OCC56CCCN5CC(F)C6)nc4c3F)c12, the pIC50 (second compound 0.0316 µM) was over 8.50, the pIC50 (second compound 0.1 µM) was over 8.50 and the pIC50 (second compound 0.316 µM) was over 8.50. The pIC50 (second compound 1 µM) was over 8.50, the pIC50 (second compound 3.16 µM) was over 8.50 and the pIC50 (second compound 10 µM) was over 8.50. The viability, T/C (second compound 0.0316 µM, first compound 0.00316 µM) was 19.3%, the viability, T/C (second compound 0.0316 µM, first compound 0.01 µM) was 12% and the viability, T/C (second compound 0.0316 µM, first compound 0.0316 µM) was 5.6%. It also gave a viability, T/C (second compound 0.0316 µM, first compound 0.1 µM) of 2.35%, a viability, T/C (second compound 0.0316 µM, first compound 0.316 µM) of 0.7% and a viability, T/C (second compound 0.0316 µM, first compound 1 µM) of 0.29%. It also gave a viability, T/C (second compound 0.1 µM, first compound 0.00316 µM) of 6.37%, a viability, T/C (second compound 0.1 µM, first compound 0.01 µM) of 4.57% and a viability, T/C (second compound 0.1 µM, first compound 0.0316 µM) of 2.3%. For the same compound, the viability, T/C (second compound 0.1 µM, first compound 0.1 µM) was 1.43%, the viability, T/C (second compound 0.1 µM, first compound 0.316 µM) was 0.58% and the viability, T/C (second compound 0.1 µM, first compound 1 µM) was 0.35%. The viability, T/C (second compound 0.316 µM, first compound 0.00316 µM) was 4.21%, the viability, T/C (second compound 0.316 µM, first compound 0.01 µM) was 2.12% and the viability, T/C (second compound 0.316 µM, first compound 0.0316 µM) was 1.39%. For the same compound, the viability, T/C (second compound 0.316 µM, first compound 0.1 µM) was 0.91%, the viability, T/C (second compound 0.316 µM, first compound 0.316 µM) was 0.54% and the viability, T/C (second compound 0.316 µM, first compound 1 µM) was 0.22%. For the same compound, the viability, T/C (second compound 1 µM, first compound 0.00316 µM) was 1.85%, the viability, T/C (second compound 1 µM, first compound 0.01 µM) was 1.57% and the viability, T/C (second compound 1 µM, first compound 0.0316 µM) was 1.12%. The viability, T/C (second compound 1 µM, first compound 0.1 µM) was 1.04%, the viability, T/C (second compound 1 µM, first compound 0.316 µM) was 0.42% and the viability, T/C (second compound 1 µM, first compound 1 µM) was 0.15%. The viability, T/C (second compound 3.16 µM, first compound 0.00316 µM) was 1.79%, the viability, T/C (second compound 3.16 µM, first compound 0.01 µM) was 1.3% and the viability, T/C (second compound 3.16 µM, first compound 0.0316 µM) was 1.31%. The viability, T/C (second compound 3.16 µM, first compound 0.1 µM) was 0.67%, the viability, T/C (second compound 3.16 µM, first compound 0.316 µM) was 0.2% and the viability, T/C (second compound 3.16 µM, first compound 1 µM) was 0.21%. For the same compound, the viability, T/C (second compound 10 µM, first compound 0.00316 µM) was 1.29%, the viability, T/C (second compound 10 µM, first compound 0.01 µM) was 0.68% and the viability, T/C (second compound 10 µM, first compound 0.0316 µM) was 0.68%. For the same compound, the viability, T/C (second compound 10 µM, first compound 0.1 µM) was 0.65%, the viability, T/C (second compound 10 µM, first compound 0.316 µM) was 0.38% and the viability, T/C (second compound 10 µM, first compound 1 µM) was 0.17%.

Reference: PubChem BioAssay AID2060903 (Molecular Pharmacology Branch, DTP, NCI, 2025)
